According to US7396837B2, “Antitumoral analogs of lamellarins” (Pharma Mar, S.A.U., priority 2002, dated 2008):

How the values were obtained:
SK-MEL-28 = test: SRB colorimetric cell growth inhibition assay, SK-MEL-28; assay type: cell-based; conditions: Homo sapiens, SK-MEL-28, MEL-28
Procedure, shortened: (§1)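 Quantitation uses the sulforhodamine B reaction on cells exposed to sample for the whole assay period; results (mean ± SD, n = 3 wells) yield GI, TGI and LC.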

PANC-1 = test: SRB colorimetric cell growth inhibition assay, PANC-1; assay type: cell-based; conditions: Homo sapiens
Procedure, shortened: as §1

SK-BR-3 = test: SRB colorimetric cell growth inhibition assay, SK-BR-3; assay type: cell-based; conditions: Homo sapiens
Procedure, shortened: as §1

IGROV-ET = test: SRB colorimetric cell growth inhibition assay, IGROV-ET (ET-743 resistant); assay type: cell-based; conditions: Homo sapiens, IGROV-ET
Procedure, shortened: as §1

human topoisomerase I = biological target: T1, human topoisomerase I (Homo sapiens, UniProt P11387); test: Topoisomerase I DNA relaxation assay (supercoiled plasmid DNA); assay type: biochemical; conditions: supercoiled plasmid DNA, each compound tested at 1 μM, agarose gel with ethidium bromide
T1 sequence (P11387 1-765): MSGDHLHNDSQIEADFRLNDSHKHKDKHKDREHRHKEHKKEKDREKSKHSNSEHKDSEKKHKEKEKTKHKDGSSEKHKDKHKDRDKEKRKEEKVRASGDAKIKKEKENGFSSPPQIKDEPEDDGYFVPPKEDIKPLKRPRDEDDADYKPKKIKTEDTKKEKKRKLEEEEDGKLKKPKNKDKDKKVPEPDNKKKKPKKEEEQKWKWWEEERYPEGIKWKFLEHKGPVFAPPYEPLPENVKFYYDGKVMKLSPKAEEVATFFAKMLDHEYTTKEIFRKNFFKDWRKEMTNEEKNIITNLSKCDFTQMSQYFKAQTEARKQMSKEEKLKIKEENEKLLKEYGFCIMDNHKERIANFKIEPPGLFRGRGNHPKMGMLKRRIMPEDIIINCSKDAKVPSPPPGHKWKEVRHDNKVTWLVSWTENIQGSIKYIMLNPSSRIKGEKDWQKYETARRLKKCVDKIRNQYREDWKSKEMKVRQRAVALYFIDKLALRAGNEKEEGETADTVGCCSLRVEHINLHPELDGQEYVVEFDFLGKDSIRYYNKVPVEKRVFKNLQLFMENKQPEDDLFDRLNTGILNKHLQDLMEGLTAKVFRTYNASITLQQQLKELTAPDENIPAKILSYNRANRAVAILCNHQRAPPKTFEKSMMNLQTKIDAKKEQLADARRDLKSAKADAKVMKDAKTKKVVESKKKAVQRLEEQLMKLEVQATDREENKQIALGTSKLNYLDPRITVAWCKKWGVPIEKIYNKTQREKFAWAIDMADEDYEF
Procedure, shortened: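 Test compounds (1 μM each) were present during topoisomerase I relaxation of supercoiled plasmid DNA. Relaxation was assessed on ethidium bromide-stained agarose gels.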

LoVo-Dox = test: SRB colorimetric cell growth inhibition assay, LoVo-Dox (MDR); assay type: cell-based; conditions: Homo sapiens, LOVO-DOX
Procedure, shortened: as §1

HT-29 = test: SRB colorimetric cell growth inhibition assay, HT-29; assay type: cell-based; conditions: Homo sapiens
Procedure, shortened: as §1

DU-145 = test: SRB colorimetric cell growth inhibition assay, DU-145; assay type: cell-based; conditions: Homo sapiens
Procedure, shortened: as §1

LoVo = test: SRB colorimetric cell growth inhibition assay, LoVo; assay type: cell-based; conditions: Homo sapiens
Procedure, shortened: as §1

K-562 = test: SRB colorimetric cell growth inhibition assay, K-562; assay type: cell-based; conditions: Homo sapiens, K562, K-562
Procedure, shortened: as §1

LNCaP = test: SRB colorimetric cell growth inhibition assay, LNCaP; assay type: cell-based; conditions: Homo sapiens, LNCaP, LN-caP
Procedure, shortened: as §1

A-549 = test: SRB colorimetric cell growth inhibition assay, A-549; assay type: cell-based; conditions: Homo sapiens, A549, A-549
Procedure, shortened: as §1

H-MEC-1 = test: SRB colorimetric cell growth inhibition assay, H-MEC-1; assay type: cell-based; conditions: Homo sapiens, HMEC-1, H-MEC-1
Procedure, shortened: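 Growth inhibition (GI), total growth inhibition (TGI, cytostatic) and lethal concentration (LC, cytotoxic) come from an SRB-based colorimetric measure of growth and viability. Data are triplicate-well means ± SD.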

IGROV = test: SRB colorimetric cell growth inhibition assay, IGROV; assay type: cell-based; conditions: Homo sapiens, IGROV
Procedure, shortened: as §1

COc1cc(-c2c3n(c4c(=O)oc5cc(OC(=O)[C@@H](N)Cc6c[nH]c7ccccc67)c(OC)cc5c24)CCc2cc(OC(=O)[C@@H](N)Cc4c[nH]c5ccccc45)c(OC)cc2-3)ccc1OC(=O)[C@@H](N)Cc1c[nH]c2ccccc12 [Compound 24]
GI50 (SK-MEL-28; GI=growth inhibition, read-out: GI50 MEL-28): 1.38 µM
CC50 (SK-MEL-28; cell killing (cytotoxic effect), read-out: LC50 MEL-28): 5.74 µM
IC (TGI) (SK-MEL-28; total growth inhibition (cytostatic effect), read-out: TGI MEL-28): 2.81 µM
CC50 (PANC-1; PANC-1, PANC-1, cell killing (cytotoxic effect), read-out: LC50 PANC-1): 7.13 µM
IC (TGI) (PANC-1; PANC-1, PANC-1, total growth inhibition (cytostatic effect), read-out: TGI PANC-1): 6.23 µM
GI50 (PANC-1; PANC-1, GI=growth inhibition, read-out: GI50 PANC-1): 1.34 µM
CC50 (SK-BR-3; SK-BR-3, SK-BR-3, cell killing (cytotoxic effect), read-out: LC50 SK-BR-3): 5.58 µM
GI50 (SK-BR-3; SK-BR-3, GI=growth inhibition, read-out: GI50 SK-BR-3): 0.653 µM
IC (TGI) (SK-BR-3; SK-BR-3, total growth inhibition (cytostatic effect), read-out: TGI SK-BR-3): 1.93 µM
GI50 (IGROV-ET; GI=growth inhibition, read-out: GI50 IGROV-ET): 1.31 µM
CC50 (IGROV-ET; cell killing (cytotoxic effect), read-out: LC50 IGROV-ET): 7.13 µM
IC (TGI) (IGROV-ET; total growth inhibition (cytostatic effect), read-out: TGI IGROV-ET): 7.13 µM
stimulation of DNA cleavage by topoisomerase I / inhibition of topoisomerase I (nicked DNA band) in DNA relaxation assay (human topoisomerase I): inhibit topoisomerase I
GI50 (LoVo-Dox; GI=growth inhibition, read-out: GI50 LOVO-DOX): 0.891 µM
CC50 (LoVo-Dox; cell killing (cytotoxic effect), read-out: LC50 LOVO-DOX): 7.13 µM
IC (TGI) (LoVo-Dox; total growth inhibition (cytostatic effect), read-out: TGI LOVO-DOX): 3.66 µM
CC50 (HT-29; HT-29, HT-29, cell killing (cytotoxic effect), read-out: LC50 HT-29): 7.13 µM
GI50 (HT-29; HT-29, GI=growth inhibition, read-out: GI50 HT-29): 7.13 µM
IC (TGI) (HT-29; HT-29, total growth inhibition (cytostatic effect), read-out: TGI HT-29): 7.13 µM
CC50 (DU-145; DU-145, DU-145, cell killing (cytotoxic effect), read-out: LC50 DU-145): 7.13 µM
GI50 (DU-145; DU-145, GI=growth inhibition, read-out: GI50 DU-145): 0.913 µM
IC (TGI) (DU-145; DU-145, total growth inhibition (cytostatic effect), read-out: TGI DU-145): 2.94 µM
CC50 (LoVo; LoVo, cell killing (cytotoxic effect), read-out: LC50 LOVO): 4.28 µM
GI50 (LoVo; LOVO, GI=growth inhibition, read-out: GI50 LOVO): 0.749 µM
IC (TGI) (LoVo; LOVO, total growth inhibition (cytostatic effect), read-out: TGI LOVO): 1.78 µM
GI50 (K-562; GI=growth inhibition, read-out: GI50 K-562): 0.68 µM
CC50 (K-562; cell killing (cytotoxic effect), read-out: LC50 K-562): 5.3 µM
IC (TGI) (K-562; total growth inhibition (cytostatic effect), read-out: TGI K-562): 1.91 µM
GI50 (LNCaP; GI=growth inhibition, read-out: GI50 LN-caP): 0.934 µM
CC50 (LNCaP; cell killing (cytotoxic effect), read-out: LC50 LN-caP): 3.89 µM
IC (TGI) (LNCaP; total growth inhibition (cytostatic effect), read-out: TGI LN-caP): 1.91 µM
GI50 (A-549; GI=growth inhibition, read-out: GI50 A-549): 1.55 µM
CC50 (A-549; cell killing (cytotoxic effect), read-out: LC50 A-549): 7.13 µM
IC (TGI) (A-549; total growth inhibition (cytostatic effect), read-out: TGI A-549): 3.37 µM
GI50 (H-MEC-1; GI=growth inhibition, read-out: GI50 H-MEC-1): 0.806 µM
IC (TGI) (H-MEC-1; total growth inhibition (cytostatic effect), read-out: TGI H-MEC-1): 2.2 µM
CC50 (IGROV; cell killing (cytotoxic effect), read-out: LC50 IGROV): 7.13 µM
GI50 (IGROV; GI=growth inhibition, read-out: GI50 IGROV): 1.23 µM
IC (TGI) (IGROV; total growth inhibition (cytostatic effect), read-out: TGI IGROV): 4.82 µM
